Test results published in patent publication US20260138959A1, “QUINAZOLINE DERIVATIVE COMPOUND AND USE THEREOF” (VORONOI INC., priority 2021, published 2026).

Key:
[1] = target: T1, human PDGFR-β(wt) (Homo sapiens, UniProt P09619); assay: Enzyme inhibitory activity, ADP-Glo kinase assay, PDGFR-β(wt); assay type: biochemical; conditions: read-out: PDGFR-β (IC50 class)
T1 construct: purchased Signalchem P13-11G
Experimental: In order to evaluate the inhibitory activity of the compounds synthesized according to the above examples on PDGFR-α(wt), PDGFR-β(wt), c-KIT(wt), and c-KIT(D816V) kinases, the following method was performed. The compounds of examples were reacted with purified human PDGFR-α(wt) (Signalchem #P12-18G) enzyme, human PDGFR-β(wt) (Signalchem #P13-11G) enzyme, human c-KIT(wt) (Signalchem #K06-11BG) enzyme, human c-KIT(D816V) (Signalchem #C06-12LG) enzyme, and the enzyme inhibitory abilities were evaluated by the following method.
The reaction buffer was used as a composition of 40 mM Tris-HCl pH7.4, 20 mM MgCl2, 0.5 mg/ml BSA, 50 μM DTT, and the reactions of all the tests were carried out on the reaction buffer. The compound was diluted in 12 steps using a serial dilution method from a 10 mM DMSO stock, and the enzyme activity was measured at a final compound concentration of 10˜0.00005645 μM. During the test, the enzyme activity was confirmed using in vitro ADP-Glo™ kinase assay (Promega) after reacting with the proper concentration of human PDGFR-α(wt) enzyme, human PDGFR-β(wt), human c-KIT(wt) enzyme, and human c-KIT(D816V) enzyme with purified ATP and enzyme substrate at 25° C. for 1˜2 hours. At a ratio of 2:2:1, an enzyme-active reaction solution, an ADP-Glo reaction solution, and an enzyme-active detection solution were reacted to measure the inhibition of the enzyme's activity with luminoscence. Based on the […] of the enzyme activity of the solvent control that was not treated with the compound, the degree of enzyme activity inhibition was calculated according to the treatment concentration of each compound, and the concentration of each compound that inhibits 50% of enzyme activity was determined as IC50 (nM) value and the value was obtained by using GraphPad Prism 8.3.0 (GraphPad software Inc., San Diego) software. (A: IC50≤50 nM; B: 50 nM<IC50≤100 nM; C: 100 nM<IC50≤500 nM; D: IC50>500 nM).

[2] = tested on: Ba/F3-TEL-PDGFβ(WT); assay: Proliferation inhibitory activity on Ba/F3 cell (CellTiter-Glo, 72 hours), PDGFR-β; assay type: cell-based; conditions: Mus musculus, BaF3, read-out: Ba/F3 (nM) Tel-PDGFRβ (GI50 class)
Experimental: Ba/F3-TEL-PDGFRα(WT), Ba/F3-TEL-PDGFβ(WT), Ba/F3-c-KIT(D816V) (Kyinno, #KC-0138), c-KIT V560G/D816V, c-KIT D814Y were seeded at 3×10^3/100 μl/well in a clear bottom white 96-well plate. A culture solution containing compounds of 12 concentrations (0.00001-2 mM) serially diluted in 3 folds and the DMSO control group was added at 0.5 μl/well each to a final concentration of 0.00005-10 μM, and then incubated in a CO2 incubator at 37° C. for 72 hours. After 72 hours, the plate treated with the compound was taken out, CellTiter-Glo® Assay (Promega) solution was treated with 100 μl/well, followed by mixing well. After mixing well for about 10 minutes at room temperature, […] was measured using a microplate reader. The data were presented as percentages in proportion to treated cells based on the vehicle, GI50 (nM) values were calculated using GraphPad Prism 8.3.0 (GraphPad software Inc., San Diego).
The inhibitory activities of Ba/F3 expressing PDGFR-α, PDGFR-β, c-KIT(D816V), c-KIT V560G/D816V, and c-KIT D814Y measured as described above were measured and shown in Table 7 below (A: GI50≤200 nM; B: 200 nM<GI50≤500 nM; C: GI50>500 nM).

[3] = tested on: c-KIT V560G/D816V; assay: Proliferation inhibitory activity on Ba/F3 cell (CellTiter-Glo, 72 hours), c-KIT V560G/D816V; assay type: cell-based; conditions: Mus musculus, BaF3, c-KIT V560G/D816V cells, read-out: Cell (nM) c-KIT V560G/D816V (GI50 class)
How it was run: (§1)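 Ba/F3 lines dependent on the indicated kinase, seeded at 3×10^3 cells/well, treated with 12 three-fold dilutions at 0.00005–10 μM final for 72 h at 37 °C. Viability read by CellTiter-Glo luminescence relative to DMSO vehicle; GI50 derived from curve fit.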

[4] = tested on: Ba/F3-c-KIT(D816V); assay: Proliferation inhibitory activity on Ba/F3 cell (CellTiter-Glo, 72 hours), c-KIT(D816V); assay type: cell-based; conditions: Mus musculus, BaF3, read-out: Ba/F3 (nM) c-KIT (D816V) (GI50 class)
How it was run: as §1

T1 sequence (P09619 33-1106): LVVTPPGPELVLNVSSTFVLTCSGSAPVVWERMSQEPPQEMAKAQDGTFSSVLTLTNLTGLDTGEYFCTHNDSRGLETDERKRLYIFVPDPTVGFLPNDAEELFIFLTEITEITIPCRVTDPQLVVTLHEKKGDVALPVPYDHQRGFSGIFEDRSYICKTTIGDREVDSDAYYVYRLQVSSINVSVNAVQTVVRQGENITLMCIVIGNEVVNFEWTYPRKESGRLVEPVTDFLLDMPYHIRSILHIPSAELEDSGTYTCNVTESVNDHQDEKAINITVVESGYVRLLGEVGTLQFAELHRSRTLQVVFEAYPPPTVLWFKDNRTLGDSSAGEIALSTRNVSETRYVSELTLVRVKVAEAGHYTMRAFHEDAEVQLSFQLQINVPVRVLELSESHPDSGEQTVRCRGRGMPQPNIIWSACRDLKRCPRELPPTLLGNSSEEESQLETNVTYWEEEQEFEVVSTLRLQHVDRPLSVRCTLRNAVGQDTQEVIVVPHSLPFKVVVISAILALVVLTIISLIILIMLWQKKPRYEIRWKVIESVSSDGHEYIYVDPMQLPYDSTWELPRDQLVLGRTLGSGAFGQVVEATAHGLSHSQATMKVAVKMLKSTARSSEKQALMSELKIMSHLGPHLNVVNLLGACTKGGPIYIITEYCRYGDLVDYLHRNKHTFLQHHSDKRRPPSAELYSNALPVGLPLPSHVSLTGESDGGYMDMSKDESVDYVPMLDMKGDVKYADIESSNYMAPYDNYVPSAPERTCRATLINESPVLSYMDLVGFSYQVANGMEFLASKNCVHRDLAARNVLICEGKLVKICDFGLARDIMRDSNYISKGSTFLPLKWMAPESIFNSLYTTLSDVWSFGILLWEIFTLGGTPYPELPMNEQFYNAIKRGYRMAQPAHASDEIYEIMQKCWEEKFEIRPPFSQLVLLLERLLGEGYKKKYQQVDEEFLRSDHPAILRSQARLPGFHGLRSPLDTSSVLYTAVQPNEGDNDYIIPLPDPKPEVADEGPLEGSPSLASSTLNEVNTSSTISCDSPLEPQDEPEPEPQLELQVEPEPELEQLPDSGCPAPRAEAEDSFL

Row | IC50 [1] [nM] | GI50 [2] [nM] | GI50 [3] [nM] | SMILES | GI50 [4] [nM]
1 | ≤ 50 | ≤ 200 | – | COc1cc2c(-c3ccc(NC(=O)C(C)c4ccco4)cc3)ncnc2cc1OCCCN1CCN(C)CC1 (stereo not shown) [Example 48, 2-(furan-2-yl)-N-(4-(6-methoxy-7-(3-(4-methylpiperazin-1-yl)propoxy)quinazolin-4-yl)phenyl)propanamide] | –
2 | ≤ 50 | ≤ 200 | – | COc1cc2c(-c3ccc(NC(=O)Cc4ccc(C(F)(F)F)cc4)c(C)c3)ncnc2cc1OCCCN1CCN(C)CC1 [Example 49, N-(4-(6-methoxy-7-(3-(4-methylpiperazin-1-yl)propoxy)quinazolin-4-yl)-2-methylphenyl)-2-(4-(trifluoromethyl)phenyl)acetamide] | –
3 | ≤ 50 | ≤ 200 | – | COc1cc2c(-c3ccc(NC(=O)Cc4ccc(C(F)(F)F)cc4)c(F)c3)ncnc2cc1OCCCN1CCN(C)CC1 [Example 50, N-(2-fluoro-4-(6-methoxy-7-(3-(4-methylpiperazin-1-yl)propoxy)quinazolin-4-yl)phenyl)-2-(4-(trifluoromethyl)phenyl)acetamide] | –
4 | ≤ 50 | ≤ 200 | – | COc1cc2c(-c3ccc(NC(=O)Cc4cscn4)cc3)ncnc2cc1OCCCN1CCN(C)CC1 [Example 51, N-(4-(6-methoxy-7-(3-(4-methylpiperazin-1-yl)propoxy)quinazolin-4-yl)phenyl)-2-(thiazole-4-yl)acetamide] | –
5 | – | ≤ 200 | – | COCCN1CCC(COc2cc3ncnc(-c4ccc(NC(=O)Cc5ccc6c(c5)OCO6)c(F)c4)c3cc2OC)CC1 [Example 52, 2-(benzo[d][1,3]dioxol-5-yl)-N-(2-fluoro-4-(6-methoxy-7-((1-(2-methoxyethyl)piperidin-4-yl)methoxy)quinazolin-4-yl)phenyl)acetamide] | –
6 | – | ≤ 200 | – | COCCN1CCC(COc2cc3ncnc(-c4ccc(NC(=O)Cc5ccc6c(c5)OCO6)c(C)c4)c3cc2OC)CC1 [Example 53, 2-(benzo[d][1,3]dioxol-5-yl)-N-(4-(6-methoxy-7-((1-(2-methoxyethyl)piperidin-4-yl)methoxy)quinazolin-4-yl)-2-methylphenyl)acetamide] | –
7 | ≤ 50 | ≤ 200 | – | COc1cc2c(-c3ccc(NC(=O)Cc4ccc5c(c4)OCO5)cc3)ncnc2cc1OCCCN1CCN(C)CC1 [Example 54, 2-(benzo[d][1,3]dioxol-5-yl)-N-(4-(6-methoxy-7-(3-(4-methylpiperazin-1-yl)propoxy)quinazolin-4-yl)phenyl)acetamide] | –
8 | ≤ 50 | ≤ 200 | > 500 | COc1cc2c(-c3ccc(NC(=O)Cc4ccc5c(c4)OCO5)cc3)ncnc2cc1OCC1CCNCC1 [Example 97, 2-(benzo[d][1,3]dioxol-5-yl)-N-(4-(6-methoxy-7-(piperidin-4-ylmethoxy)quinazolin-4-yl)phenyl)acetamide] | –
9 | ≤ 50 | ≤ 200 | ≤ 200 | COCCN1CCC(COc2cc3ncnc(-c4ccc(NC(=O)Cc5ccc6c(c5)OCO6)cc4)c3cc2OC)CC1 [Example 98, 2-(benzo[d][1,3]dioxol-5-yl)-N-(4-(6-methoxy-7-((1-(2-methoxyethyl)piperidin-4-yl)methoxy)quinazolin-4-yl)phenyl)acetamide] | –
10 | ≤ 50 | ≤ 200 | ≤ 200 | CCN1CCC(COc2cc3ncnc(-c4ccc(NC(=O)Cc5ccc6c(c5)OCO6)cc4)c3cc2OC)CC1 [Example 99, 2-(benzo[d][1,3]dioxol-5-yl)-N-(4-(7-((1-ethylpiperidin-4-yl)methoxy)-6-methoxyquinazolin-4-yl)phenyl)acetamide] | –
11 | ≤ 50 | ≤ 200 | ≤ 200 | COc1ccc(CC(=O)Nc2ccc(-c3ncnc4cc(OCC5CCN(C)CC5)c(OC)cc34)cc2)cn1 [Example 100, N-(4-(6-methoxy-7-((1-methylpiperidin-4-yl)methoxy)quinazolin-4-yl)phenyl)-2-(6-methoxypyridin-3-yl)acetamide] | –
12 | ≤ 50 | ≤ 200 | ≤ 200 | CCN1CCCC(COc2cc3ncnc(-c4ccc(NC(=O)Cc5ccc(OC)nc5)cc4)c3cc2OC)C1 (stereo not shown) [Example 109, N-(4-(7-((1-ethylpiperidin-3-yl)methoxy)-6-methoxyquinazolin-4-yl)phenyl)-2-(6-methoxypyridin-3-yl)acetamide] | –
13 | ≤ 50 | ≤ 200 | ≤ 200 | CCN1CCCC(COc2cc3ncnc(-c4ccc(NC(=O)Cc5ccc(C(F)(F)F)nc5)cc4)c3cc2OC)C1 (stereo not shown) [Example 110, N-(4-(7-((1-ethylpiperidin-3-yl)methoxy)-6-methoxyquinazolin-4-yl)phenyl)-2-(6-(trifluoromethyl)pyridin-3-yl)acetamide] | –
14 | – | ≤ 200 | ≤ 200 | COCCOc1cc2ncnc(-c3ccc(NC(=O)Cc4ccc(C(F)(F)F)nc4)cc3)c2cc1OC [Example 118, N-(4-(6-methoxy-7-(2-methoxyethoxy)quinazolin-4-yl)phenyl)-2-(6-(trifluoromethyl)pyridin-3-yl)acetamide] | –
15 | ≤ 50 | ≤ 200 | – | COc1cc2c(-c3ccc(NC(=O)Cc4ccc5c(c4)OCO5)c(F)c3)ncnc2cc1OCCCN1CCN(C)CC1 [Example 163, 2-(benzo[d][1,3]dioxol-5-yl)-N-(2-fluoro-4-(6-methoxy-7-(3-(4-methylpiperazin-1-yl)propoxy)quinazolin-4-yl)phenyl)acetamide] | –
16 | ≤ 50 | ≤ 200 | – | COc1cc2c(-c3ccc(NC(=O)Cc4ccc5c(c4)OCO5)c(C)c3)ncnc2cc1OCCCN1CCN(C)CC1 [Example 164] | –
17 | ≤ 50 | ≤ 200 | – | COc1cc2c(-c3ccc(C(=O)NCc4ccc(C(F)(F)F)cc4)cc3)ncnc2cc1OCCCN1CCN(C)CC1 [Example 165, 4-(6-methoxy-7-(3-(4-methylpiperazin-1-yl)propoxy)quinazolin-4-yl)-N-(4-(trifluoromethyl)benzyl)benzamide] | –
18 | ≤ 50 | ≤ 200 | – | COc1cc2c(-c3ccc(C(=O)NCc4ccc5c(c4)OCO5)cc3)ncnc2cc1OCCCN1CCN(C)CC1 [Example 166, N-(benzo[d][1,3]dioxol-5-ylmethyl)-4-(6-methoxy-7-(3-(4-methylpiperazin-1-yl)propoxy)quinazolin-4-yl)benzamide] | –
19 | ≤ 50 | ≤ 200 | – | COc1cc2c(-c3ccc(C(=O)NCc4ccc(F)c(F)c4)cc3)ncnc2cc1OCCCN1CCN(C)CC1 [Example 167, N-(3,4-difluorobenzyl)-4-(6-methoxy-7-(3-(4-methylpiperazin-1-yl)propoxy)quinazolin-4-yl)benzamide] | –
20 | – | ≤ 200 | – | COc1cc2c(-c3ccc(NC(=O)Nc4cccc(C(F)(F)F)c4)cc3)ncnc2cc1OCCCN1CCN(C)CC1 [Example 169] | –

Row | SMILES | IC50 [1] [nM] | GI50 [2] [nM] | GI50 [3] [nM] | GI50 [4] [nM]
21 | COc1cc2ncnc(-c3ccc(NC(=O)Cc4ccc(C(F)(F)F)cc4)cc3)c2cc1OC(=O)N1CCN(C)CC1 [Example 132, 7-methoxy-4-(4-(2-(4-(trifluoromethyl)phenyl)acetamido)phenyl)quinazolin-6-yl 4-methylpiperazin-1-carboxylate] | – | ≤ 200 | > 500 | ≤ 200
